One assay concerns Nectin-4. Kind of assay: Cross-species binding of the Nectin-4 Bicycle. Details: species or system mouse, rat, monkey, and human.
The next assay deals with CD137. Briefly: Cross-species binding of the CD137 Bicycle. On the set-up: species or system human and monkey.

Starred links: 1 amine or outer side, 2 acyl side, 3 side chain; linkers in the order of their positions; H or OH if unused. Positions of bridges follow the written chain, without caps; N, C: chain ends. Non-standard residues stand in square brackets, D forms with d. Residues, ends and D or L forms follow the SMILES beside them. TATA = O=C(CC[*:1])N1CN(C(=O)CC[*:2])CN(C(=O)CC[*:3])C1; tBuAla = CC(C)(C)C[C@H](N)C(=O)O; Nle = CCCC[C@H](N)C(=O)O

As for `CSCC[C@@H]1NC(=O)[C@@H]2CSCCC(=O)N3CN(CN(C3)C(=O)CCSC[C@H](N)C(=O)N3CCC[C@H]3C(=O)N[C@@H](Cc3cccc4ccccc34)C(=O)N[C@H](CC(=O)O)C(=O)N2)C(=O)CCSC[C@@H](C(N)=O)NC(=O)[C@H](Cc2c[nH]c3ccccc23)NC(=O)[C@@H]2C[C@@H](O)CN2C(=O)[C@@H]2CCCN2C(=O)[C@H]([C@@H](C)O)NC(=O)[C@H](CO)NC(=O)[C@H](Cc2c[nH]c3ccccc23)NC(=O)[C@H](CC(=O)O)NC(=O)[C@H](CCCCNC(=N)N)NC1=O` [BCY8116], in the assay with Nectin-4, the “species cross-reactivity of binding to Nectin-4” value is “binds to mouse, rat, monkey, and human Nectin-4”.

On to `CCCC[C@@H]1NC(=O)[C@H](Cc2ccc(O)cc2)NC(=O)[C@@H]2CCCN2C(=O)[C@H](CC(=O)O)NC(=O)[C@H](C)NC(=O)[C@H](Cc2ccccc2)NC(=O)[C@@H]2CSCCC(=O)N3CN(CN(C3)C(=O)CCSC[C@@H](C(=O)N[C@@H](C)C(N)=O)NC1=O)C(=O)CCSC[C@H](NC(C)=O)C(=O)N[C@@H](CC(C)(C)C)C(=O)N1CCC[C@H]1C(=O)N[C@@H](CCC(=O)O)C(=O)N[C@H](CCCCN)C(=O)N1CCC[C@H]1C(=O)N[C@@H](Cc1ccc(O)cc1)C(=O)N2` [BCY8928] (Ac-C[tBuAla]PE[dK]PYCFADPY[Nle]CA-NH2; linker 1-8-15 via TATA), for which, in the assay on CD137, the “species cross-reactivity of binding to CD137” value is “binds only to human and monkey CD137”.

The record behind these values is paper PMC9340768 (Journal of Medicinal Chemistry, 2022).
